Reference: PubChem BioAssay AID248 (DTP/NCI, 2004)
Several values for one entry are separate records, joined by “and”; a condition that tells them apart may be missing. Equal entries are not always repeated. Toxic doses and inconclusive results are not listed. No stated cut-off is given here; in the data, active means T/C of 150% or more; inactive means T/C below 125%.

Test system: L1210 leukemia ip in BDF1 mice, survival T/C
Test: NCI In Vivo Anticancer Drug Screen. Data for tumor model L1210 Leukemia (intraperitoneal) in B6D2F1 (BDF1) mice
Conditions: endpoint: mean survival time, higher = longer survival
In short: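 Read-out is survival time, reported as the treated-group measurement over the vehicle-control measurement.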

[1] = dose: 50.0 mg/kg/injection, schedule: Q01DX001 (ip), vehicle: Klucel (hydroxypropylcellulose) (HPC)
[2] = dose: 100.0 mg/kg/injection, schedule: Q01DX001 (ip), vehicle: Klucel (hydroxypropylcellulose) (HPC)
[3] = dose: 100.0 mg/kg/injection, schedule: Q04DX003 (ip), vehicle: saline with Tween-80
[4] = dose: 200.0 mg/kg/injection, schedule: Q04DX003 (ip), vehicle: saline with Tween-80
[5] = dose: 400.0 mg/kg/injection, schedule: Q04DX003 (ip), vehicle: saline with Tween-80
[6] = dose: 100.0 mg/kg/injection, schedule: Q01DX009 (ip), vehicle: Klucel (hydroxypropylcellulose) (HPC)
[7] = dose: 200.0 mg/kg/injection, schedule: Q01DX009 (ip), vehicle: Klucel (hydroxypropylcellulose) (HPC)
[8] = dose: 200.0 mg/kg/injection, schedule: Q01DX001 (ip), vehicle: carboxymethylcellulose (CMC)
[9] = dose: 400.0 mg/kg/injection, schedule: Q01DX001 (ip), vehicle: carboxymethylcellulose (CMC)

Measured: T/C

O=c1cc(NCc2ccccc2)[nH]c(=O)[nH]1
inactive: [1] 91 % of control | [2] 97 % of control

COC(=O)C[P+](c1ccccc1)(c1ccccc1)c1ccccc1
inactive: dose: 15.0 mg/kg/injection, schedule: Q01DX001 (ip), vehicle: saline 93 % of control | dose: 30.0 mg/kg/injection, schedule: Q01DX001 (ip), vehicle: saline 89 % of control | dose: 60.0 mg/kg/injection, schedule: Q01DX001 (ip), vehicle: saline 86 % of control

COc1cc([N+](=O)[O-])ccc1NC(=O)c1cccc([N+](=O)[O-])c1C(=O)O
inactive: dose: 100.0 mg/kg/injection, schedule: Q04DX002 (ip), vehicle: Klucel (hydroxypropylcellulose) (HPC) 95 % of control | dose: 200.0 mg/kg/injection, schedule: Q04DX002 (ip), vehicle: Klucel (hydroxypropylcellulose) (HPC) 103 % of control | dose: 400.0 mg/kg/injection, schedule: Q04DX002 (ip), vehicle: Klucel (hydroxypropylcellulose) (HPC) 100 % of control

O=C(CC(c1ccccc1)c1c(O)c2ccccc2oc1=O)c1ccccc1 (centres undefined)
inactive: dose: 0.5 mg/kg/injection, schedule: Q01DX009 (ip), vehicle: saline with Tween-80 95 % of control | dose: 1.0 mg/kg/injection, schedule: Q01DX009 (ip), vehicle: saline with Tween-80 97 % of control | dose: 2.0 mg/kg/injection, schedule: Q01DX009 (ip), vehicle: saline with Tween-80 100 % of control | dose: 4.0 mg/kg/injection, schedule: Q01DX009 (ip), vehicle: saline with Tween-80 104 % of control | [3] 94 % of control | [4] 91 % of control | [5] 101 % of control

O=C(O)c1ccnc(C(=O)O)c1
inactive: dose: 100.0 mg/kg/injection, schedule: Q01DX009 (ip), vehicle: saline 89 % of control | dose: 100.0 mg/kg/injection, schedule: Q04DX003 (ip), vehicle: saline sonified 98 % of control | dose: 200.0 mg/kg/injection, schedule: Q01DX009 (ip), vehicle: saline 93 % of control | dose: 200.0 mg/kg/injection, schedule: Q04DX003 (ip), vehicle: saline sonified 93 % of control | dose: 400.0 mg/kg/injection, schedule: Q01DX009 (ip), vehicle: saline 97 % of control | dose: 400.0 mg/kg/injection, schedule: Q04DX003 (ip), vehicle: saline sonified 92 % of control

C1CCC2C(C1)CC1CCCCC12 (centres undefined)
inactive: dose: 100.0 mg/kg/injection, schedule: Q04DX002 (ip), vehicle: saline with Tween-80 101 % of control | dose: 200.0 mg/kg/injection, schedule: Q04DX002 (ip), vehicle: saline with Tween-80 105 % of control | dose: 400.0 mg/kg/injection, schedule: Q04DX002 (ip), vehicle: saline with Tween-80 101 % of control

CCOC(=O)c1cnc(SC)nc1NCc1ccccc1Cl
inactive: [6] 102 % of control | dose: 100.0 mg/kg/injection, schedule: Q04DX003 (ip), vehicle: Klucel (hydroxypropylcellulose) (HPC) 106 % of control | [7] 97 % of control | dose: 200.0 mg/kg/injection, schedule: Q04DX003 (ip), vehicle: Klucel (hydroxypropylcellulose) (HPC) 105 % of control | dose: 400.0 mg/kg/injection, schedule: Q01DX009 (ip), vehicle: Klucel (hydroxypropylcellulose) (HPC) 97 % of control | dose: 400.0 mg/kg/injection, schedule: Q04DX003 (ip), vehicle: Klucel (hydroxypropylcellulose) (HPC) 95 % of control

O=C(CCCCc1ccc([N+](=O)[O-])cc1)Nc1ccc(S(=O)(=O)F)cc1
inactive: dose: 50.0 mg/kg/injection, schedule: Q01DX009 (ip), vehicle: Klucel (hydroxypropylcellulose) (HPC) 102 % of control | [6] 100 % of control | [7] 88 % of control

COc1cc(C=Nc2cc(Br)cc(Br)c2)ccc1N(CCCl)CCCl
active: [9] 179 % of control
inactive: dose: 1.31 mg/kg/injection, schedule: Q01DX009 (ip), vehicle: other 113 % of control | dose: 2.62 mg/kg/injection, schedule: Q01DX009 (ip), vehicle: other 104 % of control | dose: 12.5 mg/kg/injection, schedule: Q01DX001 (ip), vehicle: other 106 % of control | dose: 25.0 mg/kg/injection, schedule: Q01DX001 (ip), vehicle: other 120 % of control | dose: 50.0 mg/kg/injection, schedule: Q01DX009 (ip), vehicle: other 124 % of control | dose: 118.0 mg/kg/injection, schedule: Q01DX001 (ip), vehicle: carboxymethylcellulose (CMC) 123 % of control | dose: 177.0 mg/kg/injection, schedule: Q01DX001 (ip), vehicle: carboxymethylcellulose (CMC) 94 % of control and 108 % of control | [8] 124 % of control | dose: 266.0 mg/kg/injection, schedule: Q01DX001 (ip), vehicle: carboxymethylcellulose (CMC) 88 % of control

O=C(Cn1ccc(=O)[nH]c1=O)c1cccs1
inactive: dose: 100.0 mg/kg/injection, schedule: Q01DX009 (ip), vehicle: saline with Tween-80 104 % of control | [3] 98 % of control | dose: 200.0 mg/kg/injection, schedule: Q01DX009 (ip), vehicle: saline with Tween-80 96 % of control | [4] 96 % of control | dose: 400.0 mg/kg/injection, schedule: Q01DX009 (ip), vehicle: saline with Tween-80 96 % of control | [5] 95 % of control

C[N+]1(C2CCC3CCC2C3=O)CCCC1 (centres undefined)
inactive: dose: 75.0 mg/kg/injection, schedule: Q01DX001 (ip), vehicle: saline 97 % of control | dose: 150.0 mg/kg/injection, schedule: Q01DX001 (ip), vehicle: saline 97 % of control

COC(=O)CSC/C(=N\Nc1ccccc1)c1ccccc1
inactive: dose: 50.0 mg/kg/injection, schedule: Q04DX003 (ip), vehicle: saline 106 % of control | dose: 100.0 mg/kg/injection, schedule: Q01DX001 (ip), vehicle: saline 104 % of control | dose: 100.0 mg/kg/injection, schedule: Q04DX003 (ip), vehicle: saline 94 % of control | dose: 200.0 mg/kg/injection, schedule: Q01DX001 (ip), vehicle: saline 98 % of control | dose: 200.0 mg/kg/injection, schedule: Q04DX003 (ip), vehicle: saline 97 % of control | dose: 400.0 mg/kg/injection, schedule: Q01DX001 (ip), vehicle: saline 93 % of control | dose: 400.0 mg/kg/injection, schedule: Q04DX003 (ip), vehicle: saline 89 % of control

COc1ccccc1-n1c(=O)c(N=Nc2ccccc2C)c(O)n(-c2ccccc2Cl)c1=S
inactive: [1] 107 % of control | [2] 102 % of control | dose: 200.0 mg/kg/injection, schedule: Q01DX001 (ip), vehicle: Klucel (hydroxypropylcellulose) (HPC) 110 % of control

NCC(OCCCc1ccccc1)C(Cl)(Cl)Cl (centres undefined)
inactive: dose: 12.5 mg/kg/injection, schedule: Q04DX003 (ip), vehicle: saline with Tween-80 105 % of control | dose: 25.0 mg/kg/injection, schedule: Q01DX009 (ip), vehicle: saline with Tween-80 105 % of control | dose: 25.0 mg/kg/injection, schedule: Q04DX003 (ip), vehicle: saline with Tween-80 105 % of control | dose: 50.0 mg/kg/injection, schedule: Q01DX009 (ip), vehicle: saline with Tween-80 113 % of control | dose: 50.0 mg/kg/injection, schedule: Q04DX003 (ip), vehicle: saline with Tween-80 100 % of control

CCOP(=S)(NCCCOC)OCC
inactive: dose: 100.0 mg/kg/injection, schedule: Q01DX001 (ip), vehicle: other 94 % of control | dose: 100.0 mg/kg/injection, schedule: Q01DX009 (ip), vehicle: other 92 % of control | dose: 100.0 mg/kg/injection, schedule: Q04DX003 (ip), vehicle: other 87 % of control | dose: 200.0 mg/kg/injection, schedule: Q01DX001 (ip), vehicle: other 93 % of control | dose: 200.0 mg/kg/injection, schedule: Q01DX009 (ip), vehicle: other 93 % of control | dose: 200.0 mg/kg/injection, schedule: Q04DX003 (ip), vehicle: other 92 % of control | dose: 400.0 mg/kg/injection, schedule: Q01DX001 (ip), vehicle: other 98 % of control | dose: 400.0 mg/kg/injection, schedule: Q01DX009 (ip), vehicle: other 88 % of control | dose: 400.0 mg/kg/injection, schedule: Q04DX003 (ip), vehicle: other 93 % of control

CCOC(=O)/C(C#N)=C\c1cc(O)c(O)c(OC)c1
inactive: dose: 50.0 mg/kg/injection, schedule: Q01DX001 (ip), vehicle: carboxymethylcellulose (CMC) 100 % of control | dose: 100.0 mg/kg/injection, schedule: Q01DX001 (ip), vehicle: carboxymethylcellulose (CMC) 92 % of control | [8] 97 % of control | [9] 103 % of control
